Data reported in ChEMBL document CHEMBL5614431, “Discovery of 1,3,4-oxadiazoles with slow-action activity against Plasmodium falciparum malaria parasites” (Eur J Med Chem, 2024).
Activity calls are given as the source filed them. The rule behind the calls is not given here.

Tests used:
[1] = Toxicity in female BALB/c mouse assessed as effect on liver at 116 mg/kg, po via gavage administered twice daily for 3 days; assay type: organism-based; conditions: in vivo, 72 h, time 3 day
[2] = Chemical stability of the compound in 1:1 mixture of 6M aqueous hydrochloric acid/THF assessed as degradation measured over 20 hrs; assay type: physicochemical; conditions: buffer
Plasmodium falciparum [3] = assay: Antimalarial activity against multidrug-resistant synchronous ring stage Plasmodium falciparum Dd2 infected in human Erythrocyte assessed as inhibition of parasite growth incubated for 48 hrs by [3H]-hypoxanthine incorporation assay; assay type: functional, organism-based
Plasmodium falciparum [4] = assay: Antimalarial activity against multidrug-resistant synchronous ring stage Plasmodium falciparum Dd2 infected in human Erythrocyte assessed as inhibition of parasite growth incubated for 96 hrs by [3H]-hypoxanthine incorporation assay; assay type: functional, organism-based
[5] = Cytotoxicity against human NFF cells assessed as reduction in cell viability incubated for 72 hrs by SRB assay; assay type: toxicity, cell-based
[6] = Cmax in non fasted female BALB/c mouse plasma at 100 mg/kg, po via gavage and measured upto 24 hrs by LC-MS analysis; assay type: ADME, organism-based
[7] = Toxicity in female BALB/c mouse assessed as adverse clinical effect at 116 mg/kg, po via gavage administered twice for 3 days; assay type: organism-based; conditions: in vivo, 72 h, time 3 day
[8] = AUC (0 to t) in non fasted female BALB/c mouse plasma at 100 mg/kg, po via gavage and measured after 7.5 hrs by LC-MS analysis; assay type: ADME, organism-based
Plasmodium berghei [9] = assay: Antimalarial activity against Plasmodium berghei ANKA infected in female BALB/c mouse model assessed as reduction in parasitemia at 100 mg/kg, po qd pre-infected for 2 hrs followed by compound addition and measured after 3 days by microscopic analysis; assay type: functional, organism-based; conditions: time 3.0 day
Plasmodium falciparum [10] = assay: Resistance index, ratio of IC50 for antimalarial activity against multidrug-resistant synchronous ring stage Plasmodium falciparum Dd2 infected in human Erythrocyte assessed as inhibition of parasite growth incubated for 96 hrs by [3H]-hypoxanthine incorporation assay to IC50 for antimalarial activity against synchronous ring stage Plasmodium falciparum 3D7 infected in human Erythrocyte assessed …; assay type: toxicity, organism-based
[11] = Selectivity ratio of IC50 for antimalarial activity against synchronous ring stage Plasmodium falciparum 3D7 infected in human Erythrocyte assessed as inhibition of parasite growth incubated for 96 hrs supplemented with IPP by [3H]-hypoxanthine incorporation assay to IC50 for antimalarial activity against synchronous ring stage Plasmodium falciparum 3D7 infected in human Erythrocyte assessed as …; assay type: functional
[12] = Toxicity in female BALB/c mouse assessed as effect on kidney at 116 mg/kg, po via gavage administered once daily for 3 days; assay type: organism-based; conditions: in vivo, 72 h, time 3 day
[13] = Metabolic stability in human liver microsomes assessed as half life; assay type: ADME, Microsome
[14] = Toxicity in female BALB/c mouse assessed as effect on kidney at 116 mg/kg, po via gavage administered twice daily for 3 days; assay type: organism-based; conditions: in vivo, 72 h, time 3 day
[15] = Toxicity in female BALB/c mouse assessed as appearance of ruffled coats in animal at 116 mg/kg, po via gavage administered twice daily for 3 days; assay type: organism-based; conditions: in vivo, 72 h, time 3 day
Plasmodium falciparum [16] = assay: Antimalarial activity against synchronous ring stage Plasmodium falciparum 3D7 infected in human Erythrocyte assessed as inhibition of parasite growth incubated for 96 hrs supplemented with IPP by [3H]-hypoxanthine incorporation assay; assay type: functional, organism-based; conditions: 3D7, Erythrocyte
[17] = Tmax in non fasted female BALB/c mouse at 100 mg/kg, po via gavage and measured upto 24 hrs by LC-MS analysis; assay type: ADME, organism-based; conditions: in vivo
Plasmodium berghei [18] = assay: Antimalarial activity against Plasmodium berghei ANKA infected in female BALB/c mouse model assessed as reduction in parasitemia at 100 mg/kg, po bid pre-infected for 2 hrs followed by compound addition and measured after 3 days by microscopic analysis; assay type: functional, organism-based; conditions: time 3.0 day
[19] = Metabolic stability in mouse liver microsomes assessed as half life; assay type: ADME, Microsome
[20] = Plasma concentration in female BALB/c mouse at 100 mg/kg, po measured after 7.5 hrs; assay type: ADME, organism-based; conditions: in vivo, BLD = below limit of detection
[21] = Toxicity in female BALB/c mouse assessed as adverse clinical effect at 116 mg/kg, po via gavage administered once for 3 days; assay type: organism-based; conditions: in vivo, 72 h, time 3 day
[22] = Selectivity ratio of IC50 for antimalarial activity against multidrug-resistant synchronous ring stage Plasmodium falciparum Dd2 infected in human Erythrocyte assessed as inhibition of parasite growth incubated for 48 hrs by [3H]-hypoxanthine incorporation assay to IC50 for antimalarial activity against multidrug-resistant synchronous ring stage Plasmodium falciparum Dd2 infected in human …; assay type: functional
[23] = Selectivity index, ratio of IC50 for cytotoxicity against human NFF cells to IC50 for antimalarial activity against synchronous ring stage Plasmodium falciparum 3D7 infected in human Erythrocyte assessed as inhibition of parasite growth incubated for 96 hrs; assay type: toxicity, cell-based; conditions: read-out: Ratio IC50
[24] = Toxicity in female BALB/c mouse assessed as appearance of ruffled coats in animal at 116 mg/kg, po via gavage administered once daily for 3 days; assay type: organism-based; conditions: in vivo, 72 h, time 3 day
[25] = Toxicity in female BALB/c mouse assessed as effect on liver at 116 mg/kg, po via gavage administered once daily for 3 days; assay type: organism-based; conditions: in vivo, 72 h, time 3 day
[26] = Apparent permeability of the compound in human Caco-2 cells across apical to basolateral side; assay type: ADME, cell-based
[27] = Chemical stability of the compound in aqueous buffer/THF assessed as degradation measured over 24 hrs; assay type: physicochemical
Plasmodium falciparum [28] = assay: Antimalarial activity against synchronous ring stage Plasmodium falciparum 3D7 infected in human Erythrocyte assessed as inhibition of parasite growth incubated for 96 hrs by [3H]-hypoxanthine incorporation assay; assay type: functional, organism-based; conditions: 3D7, Erythrocyte
Plasmodium falciparum [29] = assay: Antimalarial activity against synchronous ring stage Plasmodium falciparum 3D7 infected in human Erythrocyte assessed as inhibition of parasite growth incubated for 48 hrs by [3H]-hypoxanthine incorporation assay; assay type: functional, organism-based; conditions: 3D7, Erythrocyte
[30] = Selectivity ratio of IC50 for antimalarial activity against synchronous ring stage Plasmodium falciparum 3D7 infected in human Erythrocyte assessed as inhibition of parasite growth incubated for 48 hrs by [3H]-hypoxanthine incorporation assay to IC50 for antimalarial activity against synchronous ring stage Plasmodium falciparum 3D7 infected in human Erythrocyte assessed as inhibition of parasite growth incubated for 48 hrs by [3H]-hypoxanthine incorporation assay; assay type: functional

O=S(=O)(c1nnc(N2CCOCC2)o1)C1CCCCC1
Activity [1]: Non-Toxic | Stability [2]: Unstable | IC50 (Plasmodium falciparum [3]): > 25 µM | IC50 (Plasmodium falciparum [4]): 0.5 µM | IC50 at 72 h [5]: > 100 µM | Cmax [6]: 7.61 µM | Activity [7]: Non-Toxic | AUC(0-t) at 7.5 h [8]: 11.5 µM·h | Activity (Plasmodium berghei [9]): Active | Ratio IC50 (Plasmodium falciparum [10]): 1 | Ratio IC50 [11]: 3 | Activity [12]: Non-Toxic | half-life [13]: > 4.25 h | Activity [14]: Non-Toxic | Activity [15]: Toxic | IC50 (Plasmodium falciparum [16]): 1.79 µM | Tmax [17]: 0.25 h | Activity (Plasmodium berghei [18]): Active | half-life [19]: 1.65 h | Cp [20]: Bld | Activity [21]: Non-Toxic | Ratio IC50 [22]: >50 | selectivity ratio at 96 h [23]: > 182 | Activity [24]: Toxic | Activity [25]: Non-Toxic | Papp A→B [26]: 86 ×10⁻⁶ cm/s | Stability [27]: Stable | IC50 (Plasmodium falciparum [28]): 0.55 µM | IC50 (Plasmodium falciparum [29]): > 50 µM | Ratio IC50 [30]: >91
